The target of one experiment is NS3h 1b[con1]. In words: HCV NS3 helicase inhibition across viral strains, late-stage follow-up, selectivity assay for HCV NS3 helicase inhibitor project, biochemical, real-time fluorescence, strains con1 and JFH1, set 3 (AID 602275). Particulars: Recombinant NS3h, real-time fluorescence helicase unwinding.
The next experiment concerns the target NS3h 2a[JFH1]. The description is as above. The following applies: Recombinant NS3h, real-time fluorescence helicase unwinding.

This is an account of results in PubChem BioAssay AID602275 (The Scripps Research Institute Molecular Screening Center, 2012).

As usually defined, the IC50 is the concentration at which inhibition is half-maximal.

“And” between values parts separate entries of the source, which are not always exact repeats. Equal entries are not always repeated. The source made the active and inactive calls. No rule for the calls is given here.

Take `Cc1ccc2nc(-c3ccc4nc(-c5ccc6nc(-c7ccc(N)cc7)sc6c5)sc4c3)sc2c1S(=O)(=O)O` (tested in a mixture with another compound): the IC50 was 12.8 µM at NS3h 1b[con1] and 5.3 µM at NS3h 2a[JFH1].

Consider `COc1ccc(NC(=O)Nc2ccc(-c3nc4ccc(-c5nc6ccc(C)c(S(=O)(=O)O)c6s5)cc4s3)cc2)cc1`, for which the IC50 at NS3h 1b[con1] was 4.8 µM; at NS3h 2a[JFH1] it was 6.4 µM. Take `Cc1cc2sc(-c3ccc4nc(-c5ccc(N)cc5)sc4c3)nc2cc1S(=O)(=O)O`: the results for the IC50 on NS3h 1b[con1] and on NS3h 2a[JFH1] were 7 µM and 3.9 µM, respectively. As to `Cc1ccc2nc(-c3ccc(NC(=O)c4ccc(N)cc4)cc3)sc2c1S(=O)(=O)O`, the IC50 result at NS3h 1b[con1] and on NS3h 2a[JFH1] was “inactive” each time.

For the compound `Cc1ccc2nc(-c3ccc4nc(-c5ccc6nc(-c7ccc(N)cc7)sc6c5)sc4c3)sc2c1S(=O)(=O)O`, the 50% inhibitory concentration (IC50) at NS3h 1b[con1] is 0.9 µM; on NS3h 2a[JFH1] it was 0.6 µM. Consider `Cc1ccc2nc(-c3ccc(NC(=O)c4ccc(NC(=S)Nc5ccccc5)cc4)cc3)sc2c1S(=O)(=O)O`, for which the half-inhibitory concentration (IC50) was 28.8 µM on NS3h 1b[con1] and 28.7 µM on NS3h 2a[JFH1]. As for `Cc1ccc2nc(-c3ccc(NC(=O)c4ccc(NC(=O)OCC5c6ccccc6-c6ccccc65)cc4)cc3)sc2c1S(=O)(=O)O`, the half-inhibitory concentration (IC50) at NS3h 1b[con1] was 11.8 µM; on NS3h 2a[JFH1] it was 11.5 µM. Consider `Cc1ccc2nc(-c3ccc4nc(-c5ccc(NC(=O)Nc6ccc(C(F)(F)F)cc6)cc5)sc4c3)sc2c1S(=O)(=O)O`, for which the IC50 is 5.1 µM on NS3h 1b[con1] and 4 µM at NS3h 2a[JFH1]. For `Cc1ccc2nc(-c3ccc4nc(-c5ccc(NC(=O)c6cccnc6)cc5)sc4c3)sc2c1S(=O)(=O)O`, on NS3h 2a[JFH1], the half-maximal inhibitory concentration (IC50) is 28.3 µM.

For the compound `Cc1ccc2nc(-c3ccc4nc(-c5ccc(NC(=O)c6ccc(Cl)cc6)cc5)sc4c3)sc2c1S(=O)(=O)O`, the IC50 at NS3h 1b[con1] was 3.4 µM; at NS3h 2a[JFH1], 2.3 µM.

As for `Cc1ccc2nc(-c3ccc4nc(-c5ccc(NC(=O)c6ccc(Cl)c(Cl)c6)cc5)sc4c3)sc2c1S(=O)(=O)O`, the figures for the concentration for half-maximal inhibition (IC50) at NS3h 1b[con1] and on NS3h 2a[JFH1] were 3.7 µM and 4.5 µM, respectively.

Take `COc1ccc(S(=O)(=O)Nc2ccc(-c3nc4ccc(-c5nc6ccc(C)c(S(=O)(=O)O)c6s5)cc4s3)cc2)cc1`: the IC50 on NS3h 1b[con1] was 24.4 µM; at NS3h 2a[JFH1], 13.4 µM. For the compound `Cc1cc2sc(-c3ccc(N)cc3)nc2cc1S(=O)(=O)O`, the outcome on NS3h 1b[con1] was inactive. Besides, on NS3h 2a[JFH1], the IC50 result is “inactive”. As to `Cc1ccc2nc(-c3ccc4nc(-c5ccc(NC(=O)c6ccc(C(F)(F)F)cc6)cc5)sc4c3)sc2c1S(=O)(=O)O`, the values for the half-maximal inhibitory concentration (IC50) on NS3h 1b[con1] and on NS3h 2a[JFH1] were 1.8 µM and 2.3 µM, respectively.

Consider `Cc1ccc2nc(-c3ccc4nc(-c5ccc(NC(=O)c6cc(F)cc(C(F)(F)F)c6)cc5)sc4c3)sc2c1S(=O)(=O)O`, for which the IC50 on NS3h 1b[con1] is 28.4 µM; at NS3h 2a[JFH1], 15.8 µM.

With `Cc1ccc2nc(-c3ccc4nc(-c5ccc(NC(=O)c6ccc7ccccc7c6)cc5)sc4c3)sc2c1S(=O)(=O)O`, the IC50 on NS3h 1b[con1] was 2.7 µM and 3.6 µM; on NS3h 2a[JFH1], 2.2 µM and 4.4 µM. As to `Cc1ccc2nc(-c3ccc4nc(-c5ccc6nc(-c7ccc8nc(-c9ccc(N)cc9)sc8c7)sc6c5)sc4c3)sc2c1S(=O)(=O)O`, the IC50 was 0.8 µM and 2.2 µM on NS3h 1b[con1]; 0.5 µM and 1.2 µM on NS3h 2a[JFH1]. Regarding `CC(=O)Nc1ccc(-c2nc3ccc(-c4nc5ccc(C)c(S(=O)(=O)O)c5s4)cc3s2)cc1`, the result on NS3h 1b[con1] and at NS3h 2a[JFH1] was inactive. With `Cc1ccc2nc(-c3ccc(NC(=O)c4ccc(NC(=O)Nc5ccccc5)cc4)cc3)sc2c1S(=O)(=O)O`, the values for the IC50 at NS3h 1b[con1] and at NS3h 2a[JFH1] were 43.8 µM and 32.1 µM, respectively.

With `Cc1ccc2nc(-c3ccc4nc(-c5ccc(NC(=O)c6c(F)cccc6C(F)(F)F)cc5)sc4c3)sc2c1S(=O)(=O)O`, at NS3h 1b[con1], the IC50 was 16.8 µM. Moreover, the IC50 entry at NS3h 2a[JFH1] was “inactive”. As to `Cc1ccc2nc(-c3ccc(NC(=O)c4ccc(NC(=O)c5ccc(NC(=O)OCC6c7ccccc7-c7ccccc76)cc5)cc4)cc3)sc2c1S(=O)(=O)O`, the results for the IC50 on NS3h 1b[con1] and on NS3h 2a[JFH1] were 2.5 µM and 1.9 µM, respectively. For `Cc1ccc2nc(-c3ccc4nc(-c5ccc(NC(=O)Nc6ccc(F)cc6)cc5)sc4c3)sc2c1S(=O)(=O)O`, the IC50 is 7.8 µM at NS3h 1b[con1] and 9.9 µM at NS3h 2a[JFH1]. As to `CN1CCN(Cc2cc(CN3CCN(C)CC3)c(O)c(=O)c(CN3CCN(C)CC3)c2)CC1`, the half-inhibitory concentration (IC50) on NS3h 1b[con1] is 24 µM; at NS3h 2a[JFH1], 18.9 µM. Turning to `Cc1ccc2nc(-c3ccc(NC(=O)c4ccc(NC(=O)c5ccc(C(F)(F)F)cc5)cc4)cc3)sc2c1S(=O)(=O)O`, the 50% inhibitory concentration (IC50) is 10.4 µM on NS3h 1b[con1] and 14.7 µM on NS3h 2a[JFH1]. With `Cc1cc(C(O)(c2ccc(Nc3ccccc3)cc2)c2ccc(Nc3ccc(S(=O)(=O)O)cc3)cc2)ccc1N` (stereo not given), the IC50 at NS3h 1b[con1] is 28.6 µM; on NS3h 2a[JFH1] it was 16.8 µM. Consider `Cc1ccc2nc(-c3ccc4nc(-c5ccc(NC(=O)c6cccc(C(F)(F)F)c6F)cc5)sc4c3)sc2c1S(=O)(=O)O`, for which the concentration for half-maximal inhibition (IC50) was 9.2 µM at NS3h 1b[con1] and 8.1 µM on NS3h 2a[JFH1]. For `Cc1ccc2nc(-c3ccc4nc(-c5ccc(NC(=O)c6ccccc6C(F)(F)F)cc5)sc4c3)sc2c1S(=O)(=O)O`, the half-inhibitory concentration (IC50) was 14.1 µM at NS3h 1b[con1] and 24.3 µM at NS3h 2a[JFH1]. For the compound `COc1cccc2c(=O)c3cc(Cl)cc(C(=O)Nc4cc(Cl)ccn4)c3[nH]c12`, the half-inhibitory concentration (IC50) at NS3h 1b[con1] is 27.5 µM; on NS3h 2a[JFH1], 25.3 µM.
